Test results: patent EP4603105A1, “PHARMACEUTICAL COMPOSITION CONTAINING CYCLIC COMPOUND HAVING SELECTIVE KRAS INHIBITORY EFFECT AGAINST HRAS AND NRAS” (CHUGAI SEIYAKU KABUSHIKI KAISHA, priority 2022, dated 2024)
Where a SMILES comes first, the peptide text is derived from it. Bridges are numbered along the chain shown (N, C = ends). [ ]: non-standard residue; d: D form. The star is where a group is joined. hPhe(3-Cl-4-CF3) = N[C@@H](CCc1ccc(C(F)(F)F)c(Cl)c1)C(=O)O; NPrPhe(4-CF3) = CCCN[C@@H](Cc1ccc(C(F)(F)F)cc1)C(=O)O; NMeGly(cPent) = CN[C@H](C(=O)O)C1CCCC1; Pro(4S-Me) = C[C@@H]1CN[C@H](C(=O)O)C1; NMeD = CN[C@@H](CC(=O)O)C(=O)O; NMeL = CN[C@@H](CC(C)C)C(=O)O; Morpholide = C1CN(*)CCO1; Ac5c = NC1(C(=O)O)CCCC1; Aze = O=C(O)[C@@H]1CCN1; Sar = CNCC(=O)O

How the values were obtained:
[1] = biological target: GDP-bound KRAS wild-type protein (Homo sapiens, UniProt P01116); assay: Binding to KRAS by surface plasmon resonance (SPR), dissociation constant KD; conditions: 1:1 binding model
Chain of GDP-bound KRAS wild-type protein (P01116 1-188 isoform P01116-2): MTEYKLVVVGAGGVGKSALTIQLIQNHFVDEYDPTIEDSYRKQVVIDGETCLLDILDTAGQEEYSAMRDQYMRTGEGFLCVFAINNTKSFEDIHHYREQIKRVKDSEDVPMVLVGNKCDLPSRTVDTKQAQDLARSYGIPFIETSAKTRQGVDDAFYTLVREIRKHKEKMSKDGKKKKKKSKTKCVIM
Summary of the method: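 Read-out is KD from 1:1 fitting of single-cycle kinetics sensorgrams, blank-cycle and reference-surface corrected. Proteins were GDP-loaded, biotinylated Avi-fusions freshly captured each cycle at roughly 100–300 RU. Runs were at 30°C in HBS pH 7.4 with MgCl2, GDP and 4% DMSO.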

[2] = biological target: GDP-bound NRAS wild-type protein (Homo sapiens, UniProt P01111); assay: Binding to NRAS by surface plasmon resonance (SPR), KD and KD ratio to KRAS
Chain of GDP-bound NRAS wild-type protein (P01111 whole entry): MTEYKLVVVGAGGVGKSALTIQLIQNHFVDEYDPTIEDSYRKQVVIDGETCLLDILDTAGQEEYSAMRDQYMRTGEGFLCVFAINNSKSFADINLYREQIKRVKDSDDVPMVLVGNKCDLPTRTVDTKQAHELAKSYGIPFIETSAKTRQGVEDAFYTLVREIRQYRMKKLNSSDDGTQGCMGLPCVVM
Summary of the method: (§1)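 GDP-loaded biotinylated Avi-tag RAS proteins (E. coli-expressed) captured on a Biotin CAPture chip at ~100–300 RU; single-cycle kinetics at 30°C, 100 µL/min, 75 s injections of rising compound concentrations. HBS pH 7.4 running buffer with 1 mM DTT, 10 mM MgCl2, 10 µM GDP, 4% DMSO. KD from 1:1 binding fit.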

HRAS wild-type protein = HRAS wild-type protein (Homo sapiens, UniProt P01112); assay: Binding to HRAS by surface plasmon resonance (SPR), KD and KD ratio to KRAS
Chain of HRAS wild-type protein (P01112 whole entry): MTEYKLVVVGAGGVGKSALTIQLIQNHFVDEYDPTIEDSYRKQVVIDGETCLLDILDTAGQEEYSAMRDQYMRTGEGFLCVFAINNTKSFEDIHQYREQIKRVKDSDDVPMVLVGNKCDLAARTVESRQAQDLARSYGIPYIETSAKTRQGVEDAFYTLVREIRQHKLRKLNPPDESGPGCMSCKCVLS
Summary of the method: as §1

[3] = system: human lung cancer strain NCI-H441; format: cell-based
Summary of the method: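 Readout: […] after the ATP-based reagent. Compound: serial dilutions in dimethyl sulfoxide.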

[4] = ratio of the KD value with respect to GDP-bound NRAS wild-type protein to the KD value with respect to KRAS
[5] = ratio of the KD value with respect to HRAS wild-type protein to the KD value with respect to KRAS
[6] = ratio of KD for GDP-bound NRAS wild-type protein to KD for KRAS
[7] = ratio of KD for HRAS wild-type protein to KD for KRAS
[8] = ratio of KD value for GDP-bound NRAS wild-type protein to KD value for KRAS (SPR)
[9] = ratio of KD value for HRAS wild-type protein to KD value for KRAS (SPR)

SMILES | Kd ([1]; Single Cycle Kinetics) [nM] | IC50 [3] [nM] | Kd [1] [nM] | NRAS /KRAS [2, 4] | HRAS /KRAS (HRAS wild-type protein; [5]) | NRAS /KRAS [2, 6] | HRAS /KRAS (HRAS wild-type protein; [7]) | NRAS /KRAS [2, 8] | HRAS /KRAS (HRAS wild-type protein; [9])
CCCN1C(=O)CN(C)C(=O)[C@@H]2CCN2C(=O)[C@H]([C@@H](C)CC)NC(=O)[C@H](CC(C)C)N(C)C(=O)C[C@@H](C(=O)N2CCOCC2)N(C)C(=O)[C@H](C2CCCC2)N(C)C(=O)C2(CCCC2)NC(=O)[C@@H]2C[C@H](C)CN2C(=O)[C@H](CCc2ccc(C(F)(F)F)c(Cl)c2)NC(=O)CN(C)C(=O)[C@@H]1Cc1ccc(C(F)(F)F)cc1 [PP0453] ([NMeL]I[Aze][Sar][NPrPhe(4-CF3)][Sar][hPhe(3-Cl-4-CF3)][Pro(4S-Me)][Ac5c][NMeGly(cPent)][NMeD]-Morpholide; lactam N-11) | 1.2 | 20.3 | – | B (a compound having 3 or more and less than 10 is denoted as B) | C (A compound having a KD ratio of 0.1 or more and less than 3 is denoted as C) | – | – | – | –
CCC[C@H]1C(=O)N[C@@H]([C@@H](C)CC)C(=O)N(C)CC(=O)N(C)[C@H]2C/C=C\CCN(C2=O)[C@@H](Cc2ccc(C)cc2)C(=O)N(C)CC(=O)N[C@@H](CCc2ccc3sc(C)c(C)c3c2)C(=O)N2C[C@H](OCC)C[C@H]2C(=O)NC2(CC(C)(C)C2)C(=O)N(C)[C@@H](C2CCCC2)C(=O)N(C)[C@H](C(=O)N(C)C)CC(=O)N1C [PP2891] | – | 17.2 | 0.33 | – | – | A (a compound having 10 or more and less than 20 is denoted as A) | B (a compound having 3 or more and less than 10 is denoted as B) | – | –
CCC[C@H]1C(=O)N[C@@H]([C@H](C)CC)C(=O)N(C)CC(=O)N(C)[C@H]2C/C=C\CCN(C2=O)[C@@H](Cc2ccc(C)cc2)C(=O)N(C)CC(=O)N[C@@H](CCc2ccc(C(F)(F)F)c(Cl)c2)C(=O)N2C[C@H](OCC)C[C@H]2C(=O)NC2(CC(C)(C)C2)C(=O)N(C)[C@@H](CC(C)(C)C)C(=O)N(C)[C@H](C(=O)N(C)C)CC(=O)N1C [PP2219] | 1.6 | 50.9 | – | A (a compound having 10 or more and less than 20 is denoted as A) | A (a compound having 10 or more and less than 20 is denoted as A) | – | – | – | –
CCCOC[C@H]1C(=O)N[C@@H]([C@@H](C)CC)C(=O)N(C)CC(=O)N(C)[C@H]2C/C=C\CCN(C2=O)[C@@H](Cc2ccc(C(F)(F)F)cc2)C(=O)N(C)CC(=O)N[C@@H](CCc2ccc(Cl)c(Cl)c2)C(=O)N2C[C@H](OCC)C[C@H]2C(=O)NC2(CCC2)C(=O)N(C)[C@@H](C2CCCC2)C(=O)N(C)[C@H](C(=O)N(C)CCC)CC(=O)N1C [PP2830] | – | 28.8 | 0.37 | – | – | A (a compound having 10 or more and less than 20 is denoted as A) | A (a compound having 10 or more and less than 20 is denoted as A) | – | –
CCO[C@@H]1C[C@H]2C(=O)NC3(CCC3)C(=O)N(C)[C@@H](C3CCCC3)C(=O)N(C)[C@H](C(=O)N(C)CC)CC(=O)N(C)[C@@H](CC3CCC3)C(=O)N[C@@H]([C@@H](C)CC)C(=O)N(C)CC(=O)N(C)[C@H]3C/C=C\CCN(C3=O)[C@@H](Cc3ccc(C(F)(F)F)cc3)C(=O)N(C)CC(=O)N[C@@H](CCc3ccc(Cl)c(Cl)c3)C(=O)N2C1 [PP2824] | – | 23.4 | 0.44 | – | – | A (a compound having 10 or more and less than 20 is denoted as A) | A (a compound having 10 or more and less than 20 is denoted as A) | – | –
CCC[C@H]1C(=O)N[C@@H]([C@@H](C)CC)C(=O)N(C2CC2)CC(=O)N(C)[C@H]2C/C=C\CCN(C2=O)[C@@H](Cc2ccc(C)cc2)C(=O)N(C)CC(=O)N[C@@H](CCc2ccc(C(F)(F)F)c(CC)c2)C(=O)N2C[C@H](OCC)C[C@H]2C(=O)NC2(CC(C)(C)C2)C(=O)N(C)[C@@H](C2CCCC2)C(=O)N(C)[C@H](C(=O)N(C)C)CC(=O)N1C [PP2870] | – | 11.5 | 0.58 | – | – | A (a compound having 10 or more and less than 20 is denoted as A) | A (a compound having 10 or more and less than 20 is denoted as A) | – | –

More lines, in order of falling IC50 [3], values ahead:

Kd ([1]; Single Cycle Kinetics) [nM] | IC50 [3] [nM] | Kd [1] [nM] | SMILES | NRAS /KRAS [2, 4] | HRAS /KRAS (HRAS wild-type protein; [5]) | NRAS /KRAS [2, 6] | HRAS /KRAS (HRAS wild-type protein; [7]) | NRAS /KRAS [2, 8] | HRAS /KRAS (HRAS wild-type protein; [9])
0.94 | 129 | – | CCO[C@@H]1C[C@H]2C(=O)NC3(CCC3)C(=O)N(C)[C@@H](C3CCCC3)C(=O)N(C)[C@H](C)CC(=O)N(C)[C@@H](CC3CCCC3)C(=O)N[C@@H]([C@@H](C)CC)C(=O)N(C)CC(=O)N(C)[C@H]3C/C=C\CCN(C3=O)[C@@H](Cc3ccc(F)cc3)C(=O)N(C)CC(=O)N[C@@H](CCc3cc(F)c(C(F)(F)F)c(F)c3)C(=O)N2C1 [PP1492] | – | – | – | – | B (a compound having 3 or more and less than 10 is denoted as B) | B (a compound having 3 or more and less than 10 is denoted as B)
– | 56.4 | 0.84 | CCO[C@@H]1C[C@H]2C(=O)NC3(CC(C)(C)C3)C(=O)N(C)[C@@H](C3CCCC3)C(=O)N(C)[C@H](C(=O)N(C)CC)CC(=O)N(C)[C@@H](CC(C)C)C(=O)N[C@@H]([C@@H](C)CC)C(=O)N(C)CC(=O)N(C)[C@H]3C/C=C\CCN(C3=O)[C@@H](Cc3ccc(C(F)F)cc3)C(=O)N(C)CC(=O)N[C@@H](CCc3cc(F)c4c(c3)CCC4)C(=O)N2C1 [PP3149] | – | – | A (a compound having 10 or more and less than 20 is denoted as A) | A (a compound having 10 or more and less than 20 is denoted as A) | – | –
0.12 | 26.8 | – | CCC[C@H]1C(=O)N[C@@H]([C@@H](C)CC)C(=O)N(C)CC(=O)N(C)[C@H]2C/C=C\CCN(C2=O)[C@@H](Cc2ccc(C)cc2)C(=O)N(C)CC(=O)N[C@@H](CCc2ccc(C(F)(F)F)c(OC)c2)C(=O)N2C[C@@H](C)C[C@H]2C(=O)NC2(CCC2)C(=O)N(C)[C@@H](C2CCCC2)C(=O)N(C)[C@H](C(=O)N(C)CC)CC(=O)N1C [PP1840] | – | – | – | – | A (a compound having 10 or more and less than 20 is denoted as A) | B (a compound having 3 or more and less than 10 is denoted as B)
– | 23 | 0.084 | CC[C@H](C)[C@@H]1NC(=O)[C@H](COC)NC(=O)C[C@@H](C(=O)N(C)CC)N(C)C(=O)[C@H](C2CCCC2)N(C)C(=O)C2(CC(C)(C)C2)NC(=O)[C@@H]2C[C@@H](F)CN2C(=O)[C@H](CCc2ccc(C(F)(F)F)c(OC)c2)NC(=O)CN(C)C(=O)[C@H](Cc2ccc(C(F)(F)F)cc2)N2CC/C=C\C[C@@H](C2=O)N(C)C(=O)CN(C)C1=O [PP3137] | – | – | A (a compound having 10 or more and less than 20 is denoted as A) | A (a compound having 10 or more and less than 20 is denoted as A) | – | –
– | 22.7 | 0.3 | CCO[C@@H]1C[C@H]2C(=O)NC3(CCC3)C(=O)N(C)[C@@H](C3CCCC3)C(=O)N(C)[C@H](C(=O)N(C)CC)CC(=O)N(C)[C@@H](CC(C)C)C(=O)N[C@@H]([C@@H](C)CC)C(=O)N(C)CC(=O)N(C)[C@H]3C/C=C\CCN(C3=O)[C@@H](Cc3ccc(C(F)(F)F)cc3)C(=O)N(C)CC(=O)N[C@@H](CCc3ccc(Cl)c(Cl)c3)C(=O)N2C1 [PP2845] | – | – | AA (a compound having 20 or more is denoted as AA) | A (a compound having 10 or more and less than 20 is denoted as A) | – | –
– | 8.3 | 0.086 | CCCC[C@H]1C(=O)N[C@@H]([C@@H](C)CC)C(=O)N(C)CC(=O)N(C)[C@H]2C/C=C\CCN(C2=O)[C@@H](Cc2ccc(C(F)(F)F)cc2)C(=O)N(C)CC(=O)N[C@@H](CCc2ccc(C(F)(F)F)c(Cl)c2)C(=O)N2C[C@H](OCC)C[C@H]2C(=O)NC2(CCC2)C(=O)N(C)[C@@H](C2CCCC2)C(=O)N(C)[C@H](C(=O)N(C)CC)CC(=O)N1C [PP2841] | – | – | A (a compound having 10 or more and less than 20 is denoted as A) | A (a compound having 10 or more and less than 20 is denoted as A) | – | –
0.11 | 6.5 | – | CCO[C@@H]1C[C@H]2C(=O)NC3(CC(C)(C)C3)C(=O)N(C)[C@@H](C3CCCC3)C(=O)N(C)[C@H](C(=O)N(C)C)CC(=O)N(C)[C@@H](CC3CCCC3)C(=O)N[C@@H]([C@@H](C)CC)C(=O)N(C)CC(=O)N(C)[C@H]3C/C=C\CCN(C3=O)[C@@H](Cc3ccc(C(F)(F)F)cc3)C(=O)N(C)CC(=O)N[C@@H](CCc3ccc(C(F)(F)F)c(OC)c3)C(=O)N2C1 [PP1565] | – | – | – | – | A (a compound having 10 or more and less than 20 is denoted as A) | B (a compound having 3 or more and less than 10 is denoted as B)
– | 5.6 | 0.059 | CCO[C@@H]1C[C@H]2C(=O)NC3(CC(C)(C)C3)C(=O)N(C)[C@@H](C3CCCC3)C(=O)N(C)[C@H](C(=O)N(C)C)CC(=O)N(C)[C@@H]([C@@H](C)OC)C(=O)N[C@@H]([C@@H](C)CC)C(=O)N(C)CC(=O)N(C)[C@H]3C/C=C\CCN(C3=O)[C@@H](Cc3ccc(C)cc3)C(=O)N(C)CC(=O)N[C@@H](CCc3ccc(C(F)(F)F)c(OC)c3)C(=O)N2C1 [PP3207] | – | – | A (a compound having 10 or more and less than 20 is denoted as A) | A (a compound having 10 or more and less than 20 is denoted as A) | – | –
